Assay results published in article PMC3674352 (Cell Death & Disease, 2013).

Key:
Assay type in all cases: cell-based
Bcl-2 = Bcl-2 (Homo sapiens, UniProt P10415); assay: growth of yeast co-expressing Bax and Bcl-2
Bcl-xL [1] = target: T1, Bcl-xL (Homo sapiens, UniProt Q07817); assay: growth of yeast co-expressing Bax and Bcl-xL
Bcl-xL [2] = target: T1, Bcl-xL; assay: growth and ATP content of yeast co-expressing Bax and Bcl-xL

T1 sequence (Q07812 whole entry): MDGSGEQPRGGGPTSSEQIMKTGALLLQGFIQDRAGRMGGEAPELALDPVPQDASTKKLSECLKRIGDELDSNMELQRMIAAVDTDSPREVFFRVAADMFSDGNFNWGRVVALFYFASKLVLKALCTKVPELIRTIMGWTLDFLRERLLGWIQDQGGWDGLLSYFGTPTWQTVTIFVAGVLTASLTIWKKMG
T1 sequence (Q07817 whole entry): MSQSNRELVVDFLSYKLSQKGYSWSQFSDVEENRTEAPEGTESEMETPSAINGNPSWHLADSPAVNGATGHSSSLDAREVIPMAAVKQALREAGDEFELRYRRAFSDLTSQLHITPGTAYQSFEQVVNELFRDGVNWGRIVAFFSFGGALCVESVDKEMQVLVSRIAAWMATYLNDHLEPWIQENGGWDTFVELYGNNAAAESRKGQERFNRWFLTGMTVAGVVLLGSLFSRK
Sequence of Bcl-2 (Q07812 whole entry): as the sequence (Q07812 whole entry) above
Sequence of Bcl-2 (P10415 whole entry): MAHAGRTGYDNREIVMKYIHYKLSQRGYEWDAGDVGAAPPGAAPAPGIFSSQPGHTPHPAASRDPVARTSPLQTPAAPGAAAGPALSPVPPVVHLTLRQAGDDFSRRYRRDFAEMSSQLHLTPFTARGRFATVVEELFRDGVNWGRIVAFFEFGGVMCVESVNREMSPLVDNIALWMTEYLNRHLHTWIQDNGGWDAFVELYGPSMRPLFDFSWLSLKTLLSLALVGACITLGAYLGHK

| IC50 (Bcl-2) | IC50 (Bcl-xL [1]) | IC50 (Bcl-xL [2]) | Compound |
| --- | --- | --- | --- |
| ~ just over 1 μM | ~ just under 1 μM | – | CC1(C)CCC(c2ccc(Cl)cc2)=C(CN2CCN(c3ccc(C(=O)NS(=O)(=O)c4ccc(N[C@H](CCN5CCOCC5)CSc5ccccc5)c(S(=O)(=O)C(F)(F)F)c4)cc3)CC2)C1 [ABT-263] |
| – | – | ~ just under 1 μM | CN(C)CC[C@H](CSc1ccccc1)Nc1ccc(S(=O)(=O)NC(=O)c2ccc(N3CCN(Cc4ccccc4-c4ccc(Cl)cc4)CC3)cc2)cc1[N+](=O)[O-] [ABT-737] |
